This passage reports EC50, CC50 and Ratio results from ChEMBL document CHEMBL1159023, “Fistularin 3 and 11-ketofistularin 3. Feline leukemia virus active bromotyrosine metabolites from the marine sponge Aplysina archeri” (J Nat Prod, 1992).

In one series the test system is Feline leukemia virus. Kind of series: Antiviral activity against Feline leukemia virus infected in cat CRFK cells assessed as inhibition of viral replication after 7 days by ELISA. It is filed as functional. To be noted: 168 h, read-out: ED50 (the source's name). On the technique in general: An ELISA detects its analyte on a solid surface through an enzyme-linked reagent.

Series [1] is described as follows: Cytotoxicity against cat CRFK cells assessed as reduction in cell viability after 5 days by MTT assay. It is filed as cell-based, Felis catus. The note with it: read-out: ID50. (Tetrazolium assays rely on reduction of a dye to a coloured formazan, in cell work by metabolically active cells.)
The nature of series [2]: Ratio of ID50 for cat CRFK cells to ED50 for Feline leukemia virus.

A value given as a limit tells only on which side of the number the result lay.

For the compound `Nc1ccn([C@H]2CC[C@@H](CO)O2)c(=O)n1` [ZALCITABINE], in the series on Feline leukemia virus, the EC50 amounted to 15 µM. In addition, the CC50 at 120 h in series [1] was determined as 1990 µM. In series [2], the Ratio came to 133.
Taken in the same sequence, the figures for `COC1=C(Br)[C@@H](O)[C@]2(C=C1Br)CC(C(=O)NCC(O)c1cc(Br)c(OCC(=O)CNC(=O)C3=NO[C@]4(C=C(Br)C(OC)=C(Br)[C@@H]4O)C3)c(Br)c1)=NO2` (some centres not stated) were 42 µM, more than 449 µM and more than 11.
For the compound `Cc1cn([C@H]2C[C@H](N=[N+]=[N-])[C@@H](CO)O2)c(=O)[nH]c1=O` [ZIDOVUDINE], the EC50 in the series with Feline leukemia virus worked out at 0.1 µM. Besides, the CC50 at 120 h in series [1] was determined as 1520 µM. For the same compound, in series [2], the Ratio was 15170.
Consider `COC1=C(Br)[C@@H](O)[C@]2(C=C1Br)CC(C(=O)NCC(O)c1cc(Br)c(OCC(O)CNC(=O)C3=NO[C@]4(C=C(Br)C(OC)=C(Br)[C@@H]4O)C3)c(Br)c1)=NO2` (some centres not stated) [FISTULARIN 3], for which the EC50 in the series on Feline leukemia virus was determined as 22 µM. Besides, in series [1], the CC50 at 120 h was more than 449 µM. The Ratio in series [2] is on record as more than 20.
